Data: patent US20210163453A1, “DERIVATIVES OF PAPAVERINE THAT ARE EFFECTIVE HYPOXIC TUMOR RADIOSENSITIZERS” (Ohio State Innovation Foundation, priority 2018, published 2021)

Legend:
[1] = tested on: A549 flank xenografts; test: Tumor growth delay of A549 flank xenografts with radiation (XRT); assay type: in vivo, mice
Procedure: Curves represent mean tumor volumes+−SEM. P values were calculated against XRT with two-tailed two-sample t test. *P<0.05; **P<0.01; ***P<0.001; ****P<0.0001; n.s., not significant.
(§1) Tumor Growth kinetics. 2×10^6 EO771 or 5×10^6 A549 cells were injected s.c. into the flanks of 6-week old female immunocompetent C57/B6 (EO771) or immunocompromised nu/nu (A549) mice. Caliper measurements of opposing diameter were used to calculate the tumor volumes. Upon reaching […], the tumors were visualized by cone beam CT and treatment plans calculated using SARRP software. X-rays were delivered with a single beam delivering 5 Gy using the Small Animal Research Radiation Platform (SARRP, Xstrahl). Tumor volumes were measured until the post treatment volume increased 3-fold. Error bars represent standard deviation.
For the test of the A549 flank tumors, the tumors were treated similarly to the breast cancer model, but 8 Gy was used, and a treatment group added consisting of 8 Gy radiotherapy followed 30 minutes later by 2 mg/kg papaverine. The reverse schedule would indicate if the drug must be present before the radiation so that it would alter the tumor metabolism to make it more susceptible to the radiotherapy.

[2] = tested on: NDUFV1 KO NDI1 flank xenografts; test: Tumor growth delay of NDUFV1 KO NDI1 flank xenografts with XRT; assay type: in vivo, mice; conditions: 2 mg/kg PPV 35 minutes prior to 8 Gy
Procedure: (§2) FIGS. 5A-5E show papaverine radiosensitizes through complex I inhibition. […] Values represent mean viable cells+−SD. […] Values are mean+−SD. […] P value was calculated with two-tailed two-sample t test. […] Curves represent mean tumor volumes+−SEM.
FIGS. 6A-6E show uncropped western blot membrane used for FIG. 5A showing NDUFV1 and PDH E1α levels (FIG. 6A) before probing for NDI1 (FIG. 6B). […] Values represent mean OCR from at least 5 replicates+−SD. […] Curves represent averaged colony counts+−SD. […] Values are mean tumor volumes+−SEM.
as §1, with “X-rays were delivered with a single beam delivering 5 Gy using the Small Animal Research Radiation Platform (SARRP, Xstrahl).” left out

[3] = tested on: cell lines of Table 1; test: Cell lines tested for sensitivity to PPV (mitochondrial function); assay type: cell-based, Human, Murine, Canine; conditions: 29 cell lines: breast, colon, leukemia, lung, normal, osteosarcoma, pancreas, pharynx, tongue
Procedure: Seahorse analysis of the OCR. Oxygen consumption rate (OCR) was measured using Seahorse XF96 Flux Analyzer (Agilent Technologies). The cells were seeded to attach overnight, wells were washed with pre-warmed XF Calibrant (Agilent Technologies) and the replaced with unbuffered Assay Medium (pH 7.4, 5 mM glucose, 1 mM L-glutamine). The plates were incubated at 37° C. in a CO2-free incubator for 2 hours prior to assay. For succinate rescue assay, cells were permeabilized using XF Plasma Membrane Permeabilizer Reagent (XF PMP, Agilent Technologies) according to the manufacturer's instructions. The OCR rate was measured in 1× Mitochondrial Assay Solution (MAS) (70 mM sucrose, 220 mM mannitol, 10 mM KH2PO4, 5 mM MgCl2, 2 mM Hepes, 0.6% (w/v) fatty acid-free BSA and 1 mM EGTA; pH 7.4). After baseline oxygenation was established, 1 μM rotenone or 10 μM PPV was injected at time A, followed by 5 mM succinate at time B. Error bars represent standard deviation. For the washout experiment, EO771 cells were seeded overnight, then treated with 10 μM PPV or 1 μM rotenone 3 hours prior to OCR measurement. Media was replaced 1 and 2 hours before measurement and OCR reported.
PPV was tested in vitro to determine if it could decrease mitochondrial function in all cells tested in minutes at low micromolar concentrations (Table 1, FIG. 1A).

[4] = tested on: NDUFV1 KO NDI1 flank tumors; test: Pimonidazole staining, NDUFV1 KO NDI1 flank tumors; assay type: in vivo, mice; conditions: 2 mg/kg PPV
Procedure: as §2
Pimonidazole staining. Pimonidazole adducts were visualized in hypoxic regions within histological sections of tumor tissues (Kizaka-Kondoh, S. et al. Cancer science 100, 1366-1373 (2009)). Immune-deficient mice bearing EO771 and A549 flank xenografts were treated with 2 mg/kg PPV or saline and 60 mg/kg pimonidazole administered I.P. at 30 minutes and tumors harvested at 90 minutes. Tumor sections were stained with anti-pimonidazole rabbit antisera and anti-rabbit Alexa Fluor 488 secondary antibody. The hypoxic fraction of each tumor was quantified by thresholding signal at 50% of the maximum signal on control sections. Area covered by pimonidazole-positive cells was evaluated from 20 images per animal and averaged. Error bars represent the standard deviation.

[5] = tested on: A549 cells; test: Trypan blue cell viability of A549 cells in normoxia and hypoxia; assay type: cell-based, Human; conditions: 100 μM papaverine, 72 h
Procedure: FIGS. 2A-2D are OCR measurements and cell viability assessments. FIG. 2A-2B are representative of OCR measurement in competition assay between PPV and complex I inhibitors piericidin A (FIG. 2A) and capsaicin (FIG. 2B). Values represent the means+−SD. FIGS. 2C-2D show trypan blue cell viability assessment (of n=3) of A549 cells treated with 100 μM papaverine or 1 μM rotenone in normoxia (FIG. 2C) and hypoxia (FIG. 2D) (T=72 h). Bar charts represent mean of viable cells in duplicates+−standard deviation.
Experimental: Cell lines. All cell lines were purchased from the American Type Culture Collection (ATCC) and grown DMEM (Corning) supplemented with 10% FBS (Seradigm) and 1% Penicillin/Streptomycin (Fisher Bioreagents) at 37° C. in 5% CO2. Cells were treated with inhibitors papaverine hydrochloride (Sigma-Aldrich), rotenone (Sigma-Aldrich), piericidin A (Santa Cruz), capsaicin (Sigma-Aldrich), antimycin A (Sigma-Aldrich) and succinic acid disodium salt (Sigma-Aldrich). Cell viability was assessed by trypan blue exclusion.

COc1ccc(Cc2nccc3cc(OC)c(OC)cc23)cc1OC [PPV, papaverine]
effect of drug after XRT on growth delay ([1]; 2 mg/kg after 8 Gy): did not have any effect compared to radiation alone
effect of drug before XRT on growth delay ([1]; 2 mg/kg before 8 Gy): enhances tumor growth delay
increase in tumor growth delay compared to XRT alone ([1]; 2 mg/kg before 8 Gy): greater than 3 fold
increase in tumor growth delay compared to XRT alone ([1]; 2 mg/kg before 8 Gy, listed as papaverine): 2.1-3.9 fold
radiation growth delay with drug [2]: resistant to PPV dependent increase in radiation growth delay
sensitivity to PPV [3]: List of cell lines positively tested for sensitivity to PPV
hypoxic fraction by pimonidazole [4]: no decrease of the hypoxic fraction
cellular toxicity in normoxia or hypoxia in vitro [5]: no cellular toxicity
